ChEMBL document CHEMBL1201862, “PubChem BioAssay data set” (2004)
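Test compounds were applied to cells in 96-well plates for 48 hours at 5 doses. Abbreviation: GI50, concentration required for 50% inhibition of growth.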 Activity calls are given as the source filed them. Cut-off read from the data, not from the text of the source: active = GI50 up to about 1.1 µM and inactive = higher.

Tests used:
Test in all cases: inhibition of tumour cell growth, NCI panel, 48 h
[1] = system: 786-0
[2] = system: A498
[3] = system: A549
[4] = system: ACHN
[5] = system: BT-549
[6] = system: CAKI-1
[7] = system: COLO 205
[8] = system: DU-145
[9] = system: EKVX
[10] = system: HCT-116
[11] = system: HCT-15
[12] = system: HL-60
[13] = system: HOP-62
[14] = system: HOP-92
[15] = system: HT-29
[16] = system: Hs-578T
[17] = system: IGROV-1
[18] = system: K562
[19] = system: KM12
[20] = system: LOX IMVI
[21] = system: M14
[22] = system: MCF7
[23] = system: MDA-MB-231
[24] = system: MDA-MB-435
[25] = system: MDA-N
[26] = system: MOLT-4
[27] = system: Malme-3M
[28] = system: NCI-H226
[29] = system: NCI-H23
[30] = system: NCI-H460
[31] = system: NCI-H522
[32] = system: NCI/ADR-RES
[33] = system: OVCAR-3
[34] = system: OVCAR-4
[35] = system: OVCAR-5
[36] = system: OVCAR-8
[37] = system: PC-3
[38] = system: RPMI-8226
[39] = system: RXF 393
[40] = system: SF-268
[41] = system: SF-295
[42] = system: SF-539
[43] = system: SK-MEL-28
[44] = system: SK-MEL-2
[45] = system: SK-MEL-5
[46] = system: SK-OV-3
[47] = system: SN12C
[48] = system: SNB-19
[49] = system: SNB-75
[50] = system: SR
[51] = system: SW-620
[52] = system: T47D
[53] = system: TK-10
[54] = system: U-251
[55] = system: UACC-257
[56] = system: UACC-62
[57] = system: UO-31
[58] = system: CCRF-CEM
[59] = system: HCC 2998

Measured: GI50

c1ccc(C2=NNC3c4ccccc4-c4ccccc4N3C2)cc1 (stereo not drawn)
48.4 µM: [11]
inactive: [1] 50 µM | [2] 30 µM | [3] 32.7 µM | [4] 31.8 µM | [5] 33.3 µM | [6] 43 µM | [7] 18.4 µM | [8] 40.5 µM | [9] 35.5 µM | [10] 34 µM | [12] 2.08 µM | [13] 46.1 µM | [14] 52.5 µM | [15] 39.5 µM | [16] 34.8 µM | [17] 31.6 µM | [18] 23.9 µM | [19] 37.1 µM | [20] 28.6 µM | [21] 29.2 µM | [22] 14.7 µM | [23] 26 µM | [24] 27.8 µM | [25] 33.5 µM | [26] 20 µM | [27] 30.3 µM | [28] 26.9 µM | [29] 26.1 µM | [30] 21.9 µM | [31] 26.1 µM | [32] 31.8 µM | [33] 37.5 µM | [34] 37.9 µM | [35] 99.8 µM | [36] 33.8 µM | [37] 23.7 µM | [38] 19 µM | [39] 40 µM | [40] 44.9 µM | [41] 35.6 µM | [42] 22.4 µM | [43] 35.6 µM | [44] 20.1 µM | [45] 15.9 µM | [46] 46.6 µM | [47] 35.3 µM | [48] 40 µM | [49] 21.9 µM | [50] 21.1 µM | [51] 33.4 µM | [52] 23.5 µM | [53] 33.7 µM | [54] 26.5 µM | [55] 27.2 µM | [56] 16.4 µM | [57] 32.4 µM

CN(C)c1ccc(C2SCC(=O)N2c2ccc(Oc3ccc(Cl)cc3)c(Cl)c2)cc1 (stereo not drawn)
24.2 µM: [11]
inactive: [1] 17.7 µM | [3] 22.7 µM | [4] 29.7 µM | [5] 17 µM | [6] 32.4 µM | [58] 18.5 µM | [7] 20.6 µM | [8] 16.7 µM | [9] 22.8 µM | [59] 22.3 µM | [10] 16.7 µM | [12] 20.3 µM | [13] 20.5 µM | [14] 21.8 µM | [15] 20.2 µM | [16] 14.4 µM | [17] 22.6 µM | [19] 20.3 µM | [20] 18.7 µM | [21] 28.8 µM | [22] 37.2 µM | [23] 20.4 µM | [24] 22.7 µM | [25] 28.6 µM | [26] 27.8 µM | [27] 15.1 µM | [28] 30.4 µM | [29] 18.5 µM | [30] 22.5 µM | [31] 18.3 µM | [32] 22.3 µM | [33] 23.3 µM | [34] 22.9 µM | [35] 26.4 µM | [36] 28.2 µM | [37] 19.9 µM | [38] 15.2 µM | [40] 13.8 µM | [41] > 10 µM | [42] 18.1 µM | [43] 35 µM | [44] 20.4 µM | [45] 19.1 µM | [46] 29 µM | [47] 23.3 µM | [48] 20.3 µM | [49] 17.6 µM | [50] 27.5 µM | [51] 29.4 µM | [52] 15.3 µM | [53] 48.4 µM | [54] 20.5 µM | [55] 36.6 µM | [56] 19 µM | [57] 11.6 µM
